What follows are compounds tested on BJAB cells (assay: BJAB cell proliferation (Cell Titer Glo)). Conditions: Homo sapiens, read-out: EC50.
Format: cell-based
In short: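 EC50 values come from non-linear regression of luminescence (Cell Titer Glo), expressed relative to untreated wells. BJAB cells were incubated roughly 72 h at 37 °C with serial compound dilutions carrying 0.1% final DMSO.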

| Compound | EC50 [µM] |
| --- | --- |
| Cc1nnc(-c2c(C)nn(-c3nc(-c4ccc(Cl)c(Cl)c4)c(SC(C)C)s3)c2C(=O)O)s1 [Compound 82, 1-(4-(3,4-dichlorophenyl)-5-(isopropylthio)thiazol-2-yl)-3-methyl-4-(5-methyl-1,3,4-thiadiazol-2-yl)-1H-pyrazole-5-carboxylic acid] | > 40 |
| COc1cc(C#N)cc(-c2c(C)nn(-c3nc(-c4ccc(Cl)c(Cl)c4)c(SC(C)C)s3)c2C(=O)O)c1 [Compound 83, 4-(3-cyano-5-methoxyphenyl)-1-(4-(3,4-dichlorophenyl)-5-(isopropylthio)thiazol-2-yl)-3-methyl-1H-pyrazole-5-carboxylic acid] | 5 to 10 |
| Cc1nn(-c2nc(-c3ccc(Cl)c(Cl)c3)c(SC(C)C)s2)c(C(=O)O)c1-c1cc(C#N)cc(C(F)(F)F)c1 [Compound 84, 4-(3-cyano-5-(trifluoromethyl)phenyl)-1-(4-(3,4-dichlorophenyl)-5-(isopropylthio)thiazol-2-yl)-3-methyl-1H-pyrazole-5-carboxylic Acid] | 1 to 5 |
| COCc1cccc(-c2c(C)nn(-c3nc(-c4ccc(Cl)c(Cl)c4)c(SC(C)C)s3)c2C(=O)O)c1 [Compound 85, 1-(4-(3,4-dichlorophenyl)-5-(isopropylthio)thiazol-2-yl)-4-(3-(methoxymethyl)phenyl)-3-methyl-1H-pyrazole-5-carboxylic acid] | 5 to 10 |
| Cc1nn(-c2nc(-c3ccc(Cl)c(Cl)c3)c(SC(C)C)s2)c(C(=O)O)c1-c1c(Cc2ccccc2)noc1C [Compound 86, 4-(3-benzyl-5-methylisoxazol-4-yl)-1-(4-(3,4-dichlorophenyl)-5-(isopropylthio)thiazol-2-yl)-3-methyl-1H-pyrazole-5-carboxylic Acid] | 1 to 5 |
| Cc1nn(-c2nc(-c3ccc(Cl)c(Cl)c3)c(SC(C)C)s2)c(C(=O)O)c1-c1cccc(CN(C)C)c1 [Compound 87, 1-(4-(3,4-dichlorophenyl)-5-(isopropylthio)thiazol-2-yl)-4-(3-((dimethylamino)methyl)phenyl)-3-methyl-1H-pyrazole-5-carboxylic acid] | > 25 |
| Cc1nn(-c2nc(-c3ccc(Cl)c(Cl)c3)c(SC(C)C)s2)c(CO)c1-c1ccccc1 [Compound 88, (1-(4-(3,4-dichlorophenyl)-5-(isopropylthio)thiazol-2-yl)-3-methyl-4-phenyl-1H-pyrazol-5-yl)MeOH] | > 25 |
| Cc1nn(-c2nc(-c3ccc(Cl)c(Cl)c3)c(SC(C)C)s2)c(C(=O)O)c1-c1ccc2c(c1)OCO2 [Compound 89, 4-(benzo[d][1,3]dioxol-5-yl)-1-(4-(3,4-dichlorophenyl)-5-(isopropylthio)thiazol-2-yl)-3-methyl-1H-pyrazole-5-carboxylic Acid] | 5 to 10 |
| COc1ccnc(-c2c(C)nn(-c3nc(-c4ccc(Cl)c(Cl)c4)c(SC(C)C)s3)c2C(=O)O)n1 [Compound 90, 1-(4-(3,4-dichlorophenyl)-5-(isopropylthio)thiazol-2-yl)-4-(4-methoxypyrimidin-2-yl)-3-methyl-1H-pyrazole-5-carboxylic acid] | > 25 |
| Cc1nn(-c2nc(-c3ccc(Cl)c(Cl)c3)c(SC(C)C)s2)c(C(=O)O)c1-c1cnsc1 [Compound 91, 1-(4-(3,4-dichlorophenyl)-5-(isopropylthio)thiazol-2-yl)-4-(isothiazol-4-yl)-3-methyl-1H-pyrazole-5-carboxylic acid] | 5 to 10 |
| Cc1cc(-c2c(C)nn(-c3nc(-c4ccc(Cl)c(Cl)c4)c(SC(C)C)s3)c2C(=O)O)sn1 [Compound 92, 1-(4-(3,4-dichlorophenyl)-5-(isopropylthio)thiazol-2-yl)-3-methyl-4-(3-methylisothiazol-5-yl)-1H-pyrazole-5-carboxylic Acid] | 1 to 5 |
| Cc1nn(-c2nc(-c3ccc(Cl)c(Cl)c3)c(SC(C)C)s2)c(C(=O)O)c1-c1ccn(C)c(=O)c1 [Compound 93, 1-(4-(3,4-dichlorophenyl)-5-(isopropylthio)thiazol-2-yl)-3-methyl-4-(1-methyl-2-oxo-1,2-dihydropyridin-4-yl)-1H-pyrazole-5-carboxylic acid] | > 25 |
| Cc1nn(-c2nc(-c3ccc(Cl)c(Cl)c3)c(SC(C)C)s2)c(C(=O)O)c1-c1cc(C)c(=O)n(C)c1 [Compound 94, 1-(4-(3,4-dichlorophenyl)-5-(isopropylthio)thiazol-2-yl)-4-(1,5-dimethyl-6-oxo-1,6-dihydropyridin-3-yl)-3-methyl-1H-pyrazole-5-carboxylic Acid] | > 25 |
| Cc1cc(F)cc(-c2c(C)nn(-c3nc(-c4ccc(Cl)c(Cl)c4)c(SC(C)C)s3)c2C(=O)O)c1 [Compound 95, 1-(4-(3,4-dichlorophenyl)-5-(isopropylthio)thiazol-2-yl)-4-(3-fluoro-5-methylphenyl)-3-methyl-1H-pyrazole-5-carboxylic Acid] | 1 to 5 |
| Cc1cc(O)cc(-c2c(C)nn(-c3nc(-c4ccc(Cl)c(Cl)c4)c(SC(C)C)s3)c2C(=O)O)c1 [Compound 96, 1-(4-(3,4-dichlorophenyl)-5-(isopropylthio)thiazol-2-yl)-4-(3-hydroxy-5-methylphenyl)-3-methyl-1H-pyrazole-5-carboxylic acid] | > 25 |
| Cc1cc(OC(C)C)cc(-c2c(C)nn(-c3nc(-c4ccc(Cl)c(Cl)c4)c(SC(C)C)s3)c2C(=O)O)c1 [Compound 97, 1-(4-(3,4-dichlorophenyl)-5-(isopropylthio)thiazol-2-yl)-4-(3-isopropoxy-5-methylphenyl)-3-methyl-1H-pyrazole-5-carboxylic Acid] | 1 to 5 |
| Cc1cc(OC2COC2)cc(-c2c(C)nn(-c3nc(-c4ccc(Cl)c(Cl)c4)c(SC(C)C)s3)c2C(=O)O)c1 [Compound 98, 1-(4-(3,4-dichlorophenyl)-5-(isopropylthio)thiazol-2-yl)-3-methyl-4-(3-methyl-5-(oxetan-3-yloxy)phenyl)-1H-pyrazole-5-carboxylic Acid] | 1 to 5 |
| Cc1cc(-c2c(C)nn(-c3nc(-c4ccc(Cl)c(Cl)c4)c(SC(C)C)s3)c2C(=O)O)cc(N(C)C)c1 [Compound 99, 1-(4-(3,4-dichlorophenyl)-5-(isopropylthio)thiazol-2-yl)-4-(3-(dimethylamino)-5-methylphenyl)-3-methyl-1H-pyrazole-5-carboxylic acid] | 5 to 10 |
| Cc1cc(-c2c(C)nn(-c3nc(-c4ccc(Cl)c(Cl)c4)c(SC(C)C)s3)c2C(=O)O)cc(-n2ccnc2)c1 [Compound 100, 4-(3-(1H-imidazol-1-yl)-5-methylphenyl)-1-(4-(3,4-dichlorophenyl)-5-(isopropylthio)thiazol-2-yl)-3-methyl-1H-pyrazole-5-carboxylic Acid] | 1 to 5 |
| Cc1cc(-c2c(C)nn(-c3nc(-c4ccc(Cl)c(Cl)c4)c(SC(C)C)s3)c2C(=O)O)cc(N2CCC2)n1 [Compound 101, 4-(2-(azetidin-1-yl)-6-methylpyridin-4-yl)-1-(4-(3,4-dichlorophenyl)-5-(isopropylthio)thiazol-2-yl)-3-methyl-1H-pyrazole-5-carboxylic acid] | 1 to 5 |
| Cc1cc(-c2c(C)nn(-c3nc(-c4ccc(Cl)c(Cl)c4)c(SC(C)C)s3)c2C(=O)O)cc(N2CCOCC2)n1 [Compound 102, 1-(4-(3,4-dichlorophenyl)-5-(isopropylthio)thiazol-2-yl)-3-methyl-4-(2-methyl-6-morpholinopyridin-4-yl)-1H-pyrazole-5-carboxylic Acid] | 5 to 10 |
| COc1cccc(-c2nc(-n3nc(C)c(Cc4ccccc4[N+](=O)[O-])c3C(=O)O)sc2SC(C)C)c1 [Compound 103, 1-(5-(isopropylthio)-4-(3-methoxyphenyl)thiazol-2-yl)-3-methyl-4-(2-nitrobenzyl)-1H-pyrazole-5-carboxylic Acid] | > 80 |
| Cc1nn(-c2nc(-c3ccc(Cl)c(Cl)c3)c(SCCC(C)C)s2)c(C(=O)O)c1Cc1ccccc1[N+](=O)[O-] [Compound 104, 1-(4-(3,4-dichlorophenyl)-5-(isopentylthio)thiazol-2-yl)-3-methyl-4-(2-nitrobenzyl)-1H-pyrazole-5-carboxylic acid] | 25 to 50 |
| COc1cccc(-c2nc(-n3nc(C)c(Cc4ccccc4NS(C)(=O)=O)c3C(=O)O)sc2SC(C)C)c1 [Compound 105, 1-(5-(isopropylthio)-4-(3-methoxyphenyl)thiazol-2-yl)-3-methyl-4-(2-(methylsulfonamido)benzyl)-1H-pyrazole-5-carboxylic acid] | > 80 |
| CCC(C)Sc1sc(-n2nc(C)c(Cc3ccccc3[N+](=O)[O-])c2C(=O)O)nc1-c1ccc(Cl)c(Cl)c1 (stereo not drawn) [Compound 106, 1-(5-(sec-butylthio)-4-(3,4-dichlorophenyl)thiazol-2-yl)-3-methyl-4-(2-nitrobenzyl)-1H-pyrazole-5-carboxylic acid] | 10 to 25 |
| Cc1nn(-c2nc(-c3ccc(Cl)c(Cl)c3)c(SC(C)C)s2)c(C(=O)O)c1-c1ccc2cc[nH]c2c1 [Compound 107, 1-(4-(3,4-dichlorophenyl)-5-(isopropylthio)thiazol-2-yl)-4-(1H-indol-6-yl)-3-methyl-1H-pyrazole-5-carboxylic acid] | 25 to 50 |
| Cc1nn(-c2nc(-c3ccc(Cl)c(Cl)c3)c(SC(C)C)s2)c(C(=O)O)c1-c1cccc([N+](=O)[O-])c1 [Compound 108, 1-(4-(3,4-dichlorophenyl)-5-(isopropylthio)thiazol-2-yl)-3-methyl-4-(3-nitrophenyl)-1H-pyrazole-5-carboxylic Acid] | 5 to 10 |
| Cc1nn(-c2nc(-c3ccc(Cl)c(Cl)c3)c(SC(C)C)s2)c(C(=O)O)c1-c1cn[nH]c1 [Compound 109, 2-(4-(3,4-dichlorophenyl)-5-(isopropylthio)thiazol-2-yl)-5-methyl-4,4′-bi(2H-pyrazole)-3-carboxylic acid] | 25 to 50 |
| Cc1nn(-c2nc(-c3ccc(Cl)c(Cl)c3)c(SC(C)C)s2)c(C(=O)O)c1-c1c[nH]c2ccccc12 [Compound 110, 1-(4-(3,4-dichlorophenyl)-5-(isopropylthio)thiazol-2-yl)-4-(1H-indol-3-yl)-3-methyl-1H-pyrazole-5-carboxylic acid] | 10 to 25 |
| Cc1nn(-c2nc(-c3ccc(Cl)c(Cl)c3)c(SC(C)C)s2)c(C(=O)O)c1-c1ccccc1Cl [Compound 111, 4-(2-chlorophenyl)-1-(4-(3,4-dichlorophenyl)-5-(isopropylthio)thiazol-2-yl)-3-methyl-1H-pyrazole-5-carboxylic acid] | 10 to 25 |

From patent US10537558B2 (Bantam Pharmaceutical, LLC, priority 2015, dated 2020)
